Laboratory results: US20260199484A1, “PROTAC DEGRADERS OF MLLT1 AND/OR MLLT3” (DARK BLUE THERAPEUTICS LTD, priority 2024, published 2026)

Test system: MV4-11 cells
Experiment: MV4-11 cellular proliferative assay, Assay Format B (CTG 2.0, 168 h)
Type: cell-based
Settings: Homo sapiens, Assay Method B, Table 7, read-out: MV4-11 Antiproliferation IC50
Outline: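 Cells seeded at 600/well in IMDM + 10% FBS, incubated overnight, then exposed 168 h (7 days) at 37 °C to 10 concentrations, 3-fold dilutions from 1 uM or 100 nM top dose (0.3% DMSO final). Viability by CTG 2.0 luminescence as % of DMSO control; curves fitted by four-parameter logistic regression.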

## Cc1nn(CCCCCCCC#Cc2cccc3c2CN(C2CCC(=O)NC2=O)C3=O)c2cc(C(=O)Nc3cc4[nH]c([C@H]5CCCN5C)cc4cn3)ccc12 (mixture of isomers) [Example 1, 1-(9-(2-(2,6-dioxopiperidin-3-yl)-1-oxoisoindolin-4-yl)non-8-yn-1-yl)-3-methyl-N-(2-((R)-1-methylpyrrolidin-2-yl)-1H-pyrrolo[3,2-c]pyridin-6-yl)-1H-indazole-6-carboxamide]
  IC50: 6.5 nM
